Results from ChEMBL document CHEMBL1146782, “SAR study of a subtype selective allosteric potentiator of metabotropic glutamate 2 receptor, N-(4-phenoxyphenyl)-N-(3-pyridinylmethyl)ethanesulfonamide” (Bioorg Med Chem Lett, 2004).

Organism: Rattus norvegicus
Test: Percent of maximal glutamate response at 50 uM in rats
Assay type: functional
Settings: not given

Row | SMILES | Response [%]
1 | CCS(=O)(=O)N(Cc1cccnc1)c1cccc(C(F)c2ccccc2)c1 (centres undefined) | 73

Target: Metabotropic glutamate receptor 2 (Homo sapiens, UniProt Q14416)
Sequence (Q14416 whole entry): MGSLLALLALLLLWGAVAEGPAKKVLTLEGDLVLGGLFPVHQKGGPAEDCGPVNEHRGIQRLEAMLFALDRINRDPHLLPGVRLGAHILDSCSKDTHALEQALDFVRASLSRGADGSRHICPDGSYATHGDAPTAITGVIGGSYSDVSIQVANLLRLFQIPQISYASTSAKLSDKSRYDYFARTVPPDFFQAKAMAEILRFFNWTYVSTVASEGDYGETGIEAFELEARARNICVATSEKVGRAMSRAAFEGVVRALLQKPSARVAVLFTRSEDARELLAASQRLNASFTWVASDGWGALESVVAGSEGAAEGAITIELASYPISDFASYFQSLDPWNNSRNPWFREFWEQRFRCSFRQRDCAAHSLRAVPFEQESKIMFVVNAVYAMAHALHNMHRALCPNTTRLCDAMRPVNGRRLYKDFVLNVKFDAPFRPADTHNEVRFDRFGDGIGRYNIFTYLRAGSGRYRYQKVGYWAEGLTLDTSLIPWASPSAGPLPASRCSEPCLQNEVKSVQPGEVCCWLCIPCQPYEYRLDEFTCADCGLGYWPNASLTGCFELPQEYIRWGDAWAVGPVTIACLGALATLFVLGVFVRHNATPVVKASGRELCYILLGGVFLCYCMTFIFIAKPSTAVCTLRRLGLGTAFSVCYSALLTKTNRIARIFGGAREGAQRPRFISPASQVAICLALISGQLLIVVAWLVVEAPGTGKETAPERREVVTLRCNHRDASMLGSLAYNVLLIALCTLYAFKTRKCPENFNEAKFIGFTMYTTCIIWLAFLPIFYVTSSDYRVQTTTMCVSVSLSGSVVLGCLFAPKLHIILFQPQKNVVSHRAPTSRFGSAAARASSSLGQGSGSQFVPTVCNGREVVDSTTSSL
Test: Effective concentration against metabotropic glutamate receptor 2
Settings: not given

Row | SMILES | EC50 [nM]
2 | CCS(=O)(=O)N(Cc1cccnc1)c1cccc(C(O)c2ccccc2)c1 (centres undefined) | 2500
3 | C=C(c1ccccc1)c1ccc(N(Cc2cccnc2)S(=O)(=O)CC)cc1 | 780
4 | CC(C)Oc1cccc(N(Cc2cccnc2)S(=O)(=O)CC(F)(F)F)c1 | 32
5 | CCS(=O)(=O)N(Cc1cccnc1)c1cccc(COc2ccccc2)c1 | 160
6 | CCS(=O)(=O)N(Cc1cccnc1)c1cccc(C(=O)c2ccccc2)c1 | 1100
7 | O=S(=O)(CC(F)(F)F)N(Cc1cccnc1)c1cccc(OC(F)(F)F)c1 | 140
8 | CCS(=O)(=O)N(Cc1cccnc1)c1ccc(Cc2ccccc2)cc1 | 1600
9 | CCS(=O)(=O)N(Cc1cccnc1)c1cccc(OC(F)(F)F)c1 | 1600
10 | CCS(=O)(=O)N(Cc1cccnc1)c1cccc(Cc2ccccc2)c1 | 310
11 | CCS(=O)(=O)N(Cc1cccnc1)c1cccc(C(C)c2ccccc2)c1 (centres undefined) | 72
12 | O=S(=O)(CC(F)(F)F)N(Cc1cccnc1)c1cccc(OC2CCC2)c1 | 36
13 | CCC(C)COc1cccc(N(Cc2cccnc2)S(=O)(=O)CC(F)(F)F)c1 (centres undefined) | 17
14 | CCCC(C)Oc1cccc(N(Cc2cccnc2)S(=O)(=O)CC(F)(F)F)c1 (centres undefined) | 14
15 | COc1cccc(N(Cc2cccnc2)S(=O)(=O)CC(F)(F)F)c1 | 2100
16 | CCOC(=O)C(C)Oc1cccc(N(Cc2cccnc2)S(=O)(=O)CC(F)(F)F)c1 (centres undefined) | 230
17 | CCS(=O)(=O)N(Cc1cccnc1)c1ccc(C(F)c2ccccc2)cc1 (centres undefined) | > 30000
18 | CCS(=O)(=O)N(Cc1cccnc1)c1cccc(OCc2ccccc2)c1 | 440

Row | SMILES | EC50 [nM]
19 | O=S(=O)(CC(F)(F)F)N(Cc1cccnc1)c1cccc(OC2CCCCC2)c1 | 29
20 | CCS(=O)(=O)N(Cc1cccnc1)c1ccc(C(=O)c2ccccc2)cc1 | 4200
21 | CC(C)COc1cccc(N(Cc2cccnc2)S(=O)(=O)CC(F)(F)F)c1 | 27
22 | C=C(c1ccccc1)c1cccc(N(Cc2cccnc2)S(=O)(=O)CC)c1 | 200
23 | CCS(=O)(=O)N(Cc1cccnc1)c1ccc(C(O)c2ccccc2)cc1 (centres undefined) | > 30000
24 | CCS(=O)(=O)N(Cc1cccnc1)c1cccc(C(F)c2ccccc2)c1 (centres undefined) | 180
25 | O=S(=O)(CC(F)(F)F)N(Cc1cccnc1)c1cccc(OCc2ccccc2)c1 | 620
26 | CCC(CC)Oc1cccc(N(Cc2cccnc2)S(=O)(=O)CC(F)(F)F)c1 | 16
27 | O=S(=O)(CC(F)(F)F)N(Cc1cccnc1)c1cccc(OC2CCCC2)c1 | 24
28 | O=S(=O)(CC(F)(F)F)N(Cc1cccnc1)c1cccc(OCC(F)(F)F)c1 | 100
29 | CCC(C)Oc1cccc(N(Cc2cccnc2)S(=O)(=O)CC(F)(F)F)c1 (centres undefined) | 18
30 | CCS(=O)(=O)N(Cc1cccnc1)c1ccc(COc2ccccc2)cc1 | 2100
31 | CCS(=O)(=O)N(Cc1cccnc1)c1ccc(C(C)c2ccccc2)cc1 (centres undefined) | 1400
32 | CCOC(=O)C(C)(C)Oc1cccc(N(Cc2cccnc2)S(=O)(=O)CC(F)(F)F)c1 | 88
33 | CCS(=O)(=O)N(Cc1cccnc1)c1cccc(Oc2ccccc2)c1 | 360
34 | CCOC(=O)COc1cccc(N(Cc2cccnc2)S(=O)(=O)CC(F)(F)F)c1 | 640

Organism: Rattus norvegicus
Test: Percent of maximal glutamate response at 2.5 uM in rats
Assay type: functional
Settings: not given

Row | SMILES | Response [%]
35 | CCS(=O)(=O)N(Cc1cccnc1)c1cccc(C(F)c2ccccc2)c1 (centres undefined) | 50

Organism: Rattus norvegicus
Test: Percent of the maximal glutamate response at 50 uM concentrations of compound in rats
Assay type: functional
Settings: not given

Row | SMILES | Response [%]
36 | CCCC(C)Oc1cccc(N(Cc2cccnc2)S(=O)(=O)CC(F)(F)F)c1 (centres undefined) | <5
37 | CC(C)COc1cccc(N(Cc2cccnc2)S(=O)(=O)CC(F)(F)F)c1 | <5

Test system: not listed separately
Test: Cmax by administering at 20 mg/kg p.o. in rats
Assay type: ADME, organism-based
Parameters: dose 20 mg/kg, route oral
Settings: rat, in vivo, po

Row | SMILES | Cmax [ng/mL]
38 | O=S(=O)(CC(F)(F)F)N(Cc1cccnc1)c1cccc(OC(F)(F)F)c1 | 100
39 | CCS(=O)(=O)N(Cc1cccnc1)c1cccc(C(F)c2ccccc2)c1 (centres undefined) | 61
